Reference: ChEMBL document CHEMBL1909046, “DrugMatrix in vitro pharmacology data”

How the values were obtained:
[1] = DRUGMATRIX: Calcium Channel Type L, Dihydropyridine radioligand binding (ligand: [3H] Nitrendipine); assay type: cell membranes, Rattus norvegicus, Wistar, Cerebral cortex, Membrane; conditions: Not Active = under 50% inhibition at 10 µM
[2] = biological target: T1, Neuropeptide Y receptor type 2 (Homo sapiens, UniProt P49146); assay type: cell membranes, Membrane; conditions: kan-ts; further: in other assays of this panel Not Active means under 50% inhibition at 10 µM
T1 sequence (P49146 whole entry): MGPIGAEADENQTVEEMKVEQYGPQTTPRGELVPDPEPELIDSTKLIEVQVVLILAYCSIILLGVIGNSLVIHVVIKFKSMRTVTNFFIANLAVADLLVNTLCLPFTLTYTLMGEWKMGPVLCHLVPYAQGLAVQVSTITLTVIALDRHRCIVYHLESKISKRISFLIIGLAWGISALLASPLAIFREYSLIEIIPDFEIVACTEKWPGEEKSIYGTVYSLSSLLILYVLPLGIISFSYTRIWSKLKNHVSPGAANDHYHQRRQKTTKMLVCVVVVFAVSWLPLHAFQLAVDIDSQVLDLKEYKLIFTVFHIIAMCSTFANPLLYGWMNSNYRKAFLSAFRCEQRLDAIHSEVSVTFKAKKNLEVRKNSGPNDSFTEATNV

[3] = biological target: Sigma non-opioid intracellular receptor 1 (Homo sapiens, UniProt Q99720); assay: DRUGMATRIX: Sigma1 radioligand binding (ligand: [3H] Haloperidol); assay type: cell membranes, Jurkat, Membrane; conditions: jurkat; Not Active = under 50% inhibition at 10 µM
Chain of Sigma non-opioid intracellular receptor 1 (Q99720 whole entry): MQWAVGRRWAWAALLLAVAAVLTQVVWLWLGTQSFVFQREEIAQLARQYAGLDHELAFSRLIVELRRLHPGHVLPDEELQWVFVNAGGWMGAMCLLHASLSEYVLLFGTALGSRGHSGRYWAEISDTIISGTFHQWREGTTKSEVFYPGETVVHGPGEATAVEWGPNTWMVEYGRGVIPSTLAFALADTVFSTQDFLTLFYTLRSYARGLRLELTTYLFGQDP

[4] = biological target: T2, C-X-C chemokine receptor type 2 (Homo sapiens, UniProt P25025); assay type: cell membranes, Membrane; conditions: cho-k1; further: in other assays of this panel Not Active means under 50% inhibition at 10 µM
T2 sequence (P25025 whole entry): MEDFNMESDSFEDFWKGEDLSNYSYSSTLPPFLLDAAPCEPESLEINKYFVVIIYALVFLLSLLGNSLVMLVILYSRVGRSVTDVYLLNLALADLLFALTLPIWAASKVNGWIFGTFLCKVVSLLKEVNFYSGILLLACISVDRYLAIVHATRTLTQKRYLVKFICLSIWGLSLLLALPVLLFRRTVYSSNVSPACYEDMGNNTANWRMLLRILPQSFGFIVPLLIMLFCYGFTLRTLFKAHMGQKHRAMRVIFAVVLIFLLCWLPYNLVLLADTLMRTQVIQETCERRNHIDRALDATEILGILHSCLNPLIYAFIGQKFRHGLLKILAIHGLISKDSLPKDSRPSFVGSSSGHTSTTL

[5] = biological target: T3, Nitric oxide synthase, inducible (Mus musculus, UniProt P29477); parameters: species or system Escherichia coli;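 further: inhibition of iNOS enzyme activity measured with L-arginine as substrate; in other assays of this panel Not Active means under 50% inhibition at 10 µM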
T3 sequence (P29477 whole entry): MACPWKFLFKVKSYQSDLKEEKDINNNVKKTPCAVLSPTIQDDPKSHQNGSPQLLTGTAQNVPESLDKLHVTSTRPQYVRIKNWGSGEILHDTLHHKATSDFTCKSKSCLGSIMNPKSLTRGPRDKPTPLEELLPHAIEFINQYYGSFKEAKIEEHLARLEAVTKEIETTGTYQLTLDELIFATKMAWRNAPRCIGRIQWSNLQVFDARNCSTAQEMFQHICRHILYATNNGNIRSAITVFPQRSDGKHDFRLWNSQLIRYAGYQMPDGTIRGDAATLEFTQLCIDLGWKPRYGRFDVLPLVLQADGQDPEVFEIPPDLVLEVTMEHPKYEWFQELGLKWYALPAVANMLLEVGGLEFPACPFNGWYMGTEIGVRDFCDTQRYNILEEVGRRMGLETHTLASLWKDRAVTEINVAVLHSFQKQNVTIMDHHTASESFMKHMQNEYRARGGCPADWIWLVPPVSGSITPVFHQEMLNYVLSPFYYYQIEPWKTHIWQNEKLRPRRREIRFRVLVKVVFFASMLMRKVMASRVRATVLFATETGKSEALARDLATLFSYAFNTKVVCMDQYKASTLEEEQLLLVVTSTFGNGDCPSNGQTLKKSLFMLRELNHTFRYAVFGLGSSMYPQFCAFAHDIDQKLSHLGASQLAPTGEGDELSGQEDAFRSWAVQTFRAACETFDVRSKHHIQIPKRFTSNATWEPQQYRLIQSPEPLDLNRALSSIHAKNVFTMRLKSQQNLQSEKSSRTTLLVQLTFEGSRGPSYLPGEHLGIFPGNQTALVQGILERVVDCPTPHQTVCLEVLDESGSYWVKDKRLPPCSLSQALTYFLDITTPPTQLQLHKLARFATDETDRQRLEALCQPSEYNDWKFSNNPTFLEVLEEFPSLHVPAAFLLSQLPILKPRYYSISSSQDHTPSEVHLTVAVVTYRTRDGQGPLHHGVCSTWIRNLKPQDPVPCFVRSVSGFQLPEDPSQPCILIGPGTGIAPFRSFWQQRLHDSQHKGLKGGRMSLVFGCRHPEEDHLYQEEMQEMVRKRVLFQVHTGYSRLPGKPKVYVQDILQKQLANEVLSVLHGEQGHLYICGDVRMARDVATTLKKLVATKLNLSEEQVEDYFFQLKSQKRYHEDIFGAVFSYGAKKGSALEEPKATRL

[6] = biological target: C-C chemokine receptor type 5 (Homo sapiens, UniProt P51681); assay type: cell membranes, Membrane; conditions: hek293; further: in other assays of this panel Not Active means under 50% inhibition at 10 µM
Chain of C-C chemokine receptor type 5 (P51681 whole entry): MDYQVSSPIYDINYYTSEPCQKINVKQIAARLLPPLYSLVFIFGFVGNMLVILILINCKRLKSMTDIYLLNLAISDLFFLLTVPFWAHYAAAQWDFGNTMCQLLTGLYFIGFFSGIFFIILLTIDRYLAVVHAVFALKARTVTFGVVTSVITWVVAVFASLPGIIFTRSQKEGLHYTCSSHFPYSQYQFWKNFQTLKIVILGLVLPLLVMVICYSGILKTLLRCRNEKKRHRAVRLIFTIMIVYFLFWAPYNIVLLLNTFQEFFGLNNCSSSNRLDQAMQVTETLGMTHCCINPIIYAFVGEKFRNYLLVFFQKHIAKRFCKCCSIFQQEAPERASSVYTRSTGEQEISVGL

Neutrophil elastase = biological target: T4, Neutrophil elastase (Homo sapiens, UniProt P08246); assay type: tissue-based
T4 sequence (P08246 whole entry): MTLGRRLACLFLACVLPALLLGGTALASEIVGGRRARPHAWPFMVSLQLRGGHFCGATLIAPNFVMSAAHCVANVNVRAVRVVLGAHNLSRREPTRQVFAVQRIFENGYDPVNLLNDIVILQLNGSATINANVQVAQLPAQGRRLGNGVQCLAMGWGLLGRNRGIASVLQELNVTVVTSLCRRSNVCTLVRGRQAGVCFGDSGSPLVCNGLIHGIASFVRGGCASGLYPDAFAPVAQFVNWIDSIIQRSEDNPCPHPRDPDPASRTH

CC[C@]1(O)C[C@@H]2CN(CCc3c([nH]c4ccccc34)[C@@](C(=O)OC)(c3cc4c(cc3OC)N(C)[C@H]3[C@@](O)(C(N)=O)[C@H](O)[C@]5(CC)C=CCN6CC[C@]43[C@@H]65)C2)C1 [VINDESINE]
Not Active: IC50 [1] | Ki [1] | IC50 [2] | IC50 [3] | IC50 [4] | IC50 [5] | IC50 [6] | IC50 (Neutrophil elastase)

CCN(C(C)=O)c1cccc(-c2ccnc3c(C#N)cnn23)c1 [ZALEPLON]
Not Active: IC50 [1] | Ki [1] | IC50 [2] | IC50 [3] | IC50 [4] | IC50 [5] | IC50 [6] | IC50 (Neutrophil elastase)

COBALTOUS CHLORIDE
Not Active: IC50 [1] | Ki [1] | IC50 [2] | Ki [2] | IC50 [3] | Ki [3] | IC50 [4] | Ki [4] | IC50 [5] | Ki [5] | IC50 [6] | Ki [6] | IC50 (Neutrophil elastase) | Ki (Neutrophil elastase)

COLISTIN
Not Active: IC50 [1] | Ki [1] | IC50 [2] | Ki [2] | IC50 [3] | Ki [3] | IC50 [4] | Ki [4] | IC50 [5] | Ki [5] | IC50 [6] | Ki [6] | IC50 (Neutrophil elastase) | Ki (Neutrophil elastase)
